{"source": "patent EP3319638B1", "about": "“CINEOL-CONTAINING COMPOSITION FOR THE TREATMENT OF TUMOURS AND/OR CANCERS” (Maria Clementine Martin Klosterfrau Vertriebsgesellschaft …, priority 2015, dated 2017)", "key": {"[1]": {"tested_on": "aktivem β-Catenin", "test": "Western blot of whole-cell protein: expression level of active β-catenin in HNSCC cell lines", "format": "cell-based, human", "details": "24 h incubation, 100 µM, versus medium control (Fig. 1A)", "experimental": "(§1) Die im Rahmen der vorliegenden Erfindung untersuchten adhärenten humanen Kopf-Hals-Plattenepithel-Karzinom-Zelllinien (UT-SCC16A, UT-SCC-16B, UT-SCC-60A und UT-SCC-60B) werden in \"Dulbecco's Modifiziertem Eagle's Medium\" (DMEM, 4,5 g/l D-Glucose und L-Glutamin), welches mit 10 % fötalem Rinderserum (FBS) (beide Life Technologies, Carlsbad, CA, USA), 1 % Natriumpyruvat (PAN-Biotech, Aidenbach, Deutschland) und 1 % Antibiotika (10.000 U/ml Penicillin, 10.000 µg/ml Streptomycin) (Biochrom, Berlin, Deutschland) supplementiert ist, bei 37 °C unter 5 % CO2 und 95 % LuftAtmosphäre gelagert.\n(§2) Anti-Phospho-GSK-3α/β-Antikörper (Serin-21/-9) (#9331) und Anti-GAPDH-Antikörper (#2118) werden über Cell Signaling Technology (Danvers, MA, USA) bezogen. Beide Antikörper werden in einer […]-Verdünnung in TBS mit 3 % BSA (PAA Laboraties, Pasching, Österreich) verwendet. Anti-Phospho-GSK-3a/β-Antikörper (Y279/Y216) (#ab6847) werden von Abcam (Cambridge, UK) erhalten und in einer 1 : 1.000-Verdünnung in TBS mit 3 % BSA verwendet. Der gegen aktives-β-Catenin gerichtete Antikörper (#05-665) wird über Merck Milipore (Billerica, MA, USA) bezogen und in einer Verdünnung von 1 : 2.000 in TBS und 3 % Milchpulver (Carl Roth, Karlsruhe, Deutschland) verwendet. […]"}, "[2]": {"tested_on": "phosphoryliertem GSK-3α/β (Serin-9/-21)", "test": "Western blot: phosphorylation level of GSK-3α/β at Ser-9/-21 in HNSCC cell lines", "format": "cell-based, human", "details": "100 µM, HNSCC cell lines (Fig. 1B)", "experimental": "as §1, §2"}, "[3]": {"tested_on": "GSK-3α/β (Tyrosin-279/-216)", "test": "Western blot: phospho-GSK-3α/β at Tyr-279/-216 in HNSCC cell lines", "format": "cell-based, human", "details": "100 µM, HNSCC cell lines (Fig. 1C)", "experimental": "as §1, §2"}, "[4]": {"tested_on": "Phospho-GSK-3 (Serin-9/-21)", "test": "Immunohistochemistry: subcellular (endolysosomal) localisation of phospho-GSK-3", "format": "cell-based, human", "details": "100 µM, versus control medium (Fig. 2)", "experimental": "Zur Detektion von […] innerhalb der Tumorzellen wird eine immunohistochemische Methode eingesetzt. Die Zellen werden 24 Stunden vor der Behandlung mit 100 µM Cineol in 4-Well-Kammerobjektträgern (Sarstadt AG, Numbrecht, Deutschland) überführt. Nach der Inkubation wurde das Medium entfernt und die Zellen wurden zweimal in PBS gewaschen. Zur intrazellulären Färbung wurden die Zellen mit 0,1 % Triton-X-100 (Sigma-Aldrich Chemie GmbH, Steinheim) in PBS fixiert. Der spezifische primäre Antikörper Anti-Phospho-GSK-3α/β (Serin-21/-9) (#9331) (Cell Signaling, Danvers, MA, USA) wird mit einem Antikörper-Verdünnungspuffer, welcher Blocking-Puffer (DCS LabLine, DCS, Hamburg, Deutschland) enthält, auf 1 : 50 verdünnt und in einer luftbefeuchteten Kammer für 1 Stunde bei Raumtemperatur (RT) inkubiert. Nach Waschen mit PBS wird der zweite Antikörper Ziege-anti-Maus FITC (Jackson ImmunoResearch Laboratories, West Grove, USA) in einer Verdünnung von 1 : 100 für 45 Minuten inkubiert. Die Zellen werden dreimal mit PBS gespült. Die Zellkerne werden für 1 Minute unter Einsatz von DAPI (1 µg/ml, Roche Diagnostics, Mannheim, Deutschland) gefärbt. Die Proben werden dreimal für 5 Minuten mit PBS gespült und anschließend in Fluoromount G (Southern Biotechnologies Associates, Birmingham, Alabama, USA) eingebettet. […]"}, "[5]": {"tested_on": "Akt", "test": "Western blot: Akt expression in HNSCC cell lines", "format": "cell-based, human", "details": "100 µM, HNSCC cell lines (Fig. 3)", "experimental": "as §1\n(§3) Die Zellen werden zweimal in eiskaltem PBS gewaschen und anschließend in RIPA-Puffer (Cell Signaling Technology, Danvers, MA, USA) mit Aprotinin, Pepstatin A, Protease Inhibitor Cocktail und Phenylmethansulfonylfluorid (Sigma-Aldrich, St. Louis, MO, USA) für 1,5 Stunden lysiert. Durch Zentrifugation (13.000 rpm, 4 °C, 10 Minuten) werden Zelltrümmer entfernt. Die Proteinkonzentration wird mittels des Bradford-Tests mit einfach konzentriertem Quick StartTM Dye Reagent (Bio-Rad Laboratories, Hercules, CA, USA) bestimmt. Es wird vierfach konzentrierter SDS-Probenpuffer hinzugefügt, und die Proben werden für 5 Minuten bei 95 °C denaturiert. Äquivalente Proteinmengen (30 µg) werden mittels SDS-PAGE in einem 10 % Polyacrylamidgel aufgetrennt und mittels Immunoblot auf Nitrocellulosemembranen übertragen. […]"}, "[6]": {"tested_on": "P-Akt (Threonin-308)", "test": "Western blot: Akt phosphorylation at Thr-308 in HNSCC cell lines", "format": "cell-based, human", "details": "100 µM, HNSCC cell lines (Fig. 3)", "experimental": "as §1, §3"}, "[7]": {"tested_on": "Wnt11", "test": "RT2 EMT Profiler PCR array: Wnt11 mRNA level in HNSCC cell lines", "format": "cell-based, human", "details": "100 µM, HNSCC cell lines (Fig. 4A)", "text": "PCR-Test zur humanen epithelial-mesenchymalen Transition (EMT) Mit dem \"Human Epithelial to Mesenchymal Transition (EMT) RT^2 Profiler™ PCR Array\" wird die Expression von 84 Schlüsselgenen, welche ihre Expression während dieses Prozesses verändern oder die Expression von sich verändernden Genen regulieren, festgestellt. Der Test umfasst für Zelloberflächenrezeptoren, extrazelluläre Matrix und das Zytoskelett kodierende Gene, Gene, welche Zelladhäsion, Migration, Motilität und Morphogenese steuern; sowie Gene für Signaltransduktion und Transkriptionsfaktoren, welche die EMT sowie die damit assoziierten Prozesse bedingen.\nWeiterhin werden im Hinblick auf die Wnt/β-Catenin-Signalgebung aufgrund ihrer Involvierung in die Regulation der epithelial-mesenchymalen Transition (EMT) die transkriptionellen Profile verschiedener Gene, welche in Zusammenhang mit EMT stehen, in Reaktion auf 1,8-Cineol untersucht. Dafür wird der PCR-basierte \"RT^2 EMT Profiler\" eingesetzt, welcher die umfassende Analyse von 84 verschiedenen, in Zusammenhang mit EMT stehenden Genen erlaubt."}, "[8]": {"tested_on": "Wnt11", "test": "Western blot: Wnt11 protein expression in HNSCC cell lines", "format": "cell-based, human", "experimental": "Die Zellen werden zweimal in eiskaltem PBS gewaschen und anschließend in RIPA-Puffer (Cell Signaling Technology, Danvers, MA, USA) mit Aprotinin, Pepstatin A, Protease Inhibitor Cocktail und Phenylmethansulfonylfluorid (Sigma-Aldrich, St. Louis, MO, USA) für 1,5 Stunden lysiert. Durch Zentrifugation (13.000 rpm, 4 °C, 10 Minuten) werden Zelltrümmer entfernt. Die Proteinkonzentration wird mittels des Bradford-Tests mit einfach konzentriertem Quick StartTM Dye Reagent (Bio-Rad Laboratories, Hercules, CA, USA) bestimmt. Es wird vierfach konzentrierter SDS-Probenpuffer hinzugefügt, und die Proben werden für 5 Minuten bei 95 °C denaturiert. Äquivalente Proteinmengen (30 µg) werden mittels SDS-PAGE in einem 10 % Polyacrylamidgel aufgetrennt und mittels Immunoblot auf Nitrocellulosemembranen übertragen. Für die Proteinextraktion aus Geweben werden die Gewebe zunächst in 500 µl RIPA-Puffer mit Protease-Inhibitoren unter Einsatz des TissueLyser LT (Qiagen, Hilden, Deutschland) homogenisiert, anschließend inkubiert und wie zuvor beschrieben zentrifugiert.\nDie Membranen werden mit TBS, enthaltend 3 % BSA oder 3 % Milchpulver, für 1 Stunde bei Raumtemperatur geblockt und anschließend mit dem primären Antikörper über Nacht bei 4 °C inkubiert. Nach einem Waschschritt mit TBS werden die Membranen mit dem speziesspezifischen sekundären Antikörper für 1 Stunde bei Raumtemperatur inkubiert. Die Proteinbanden werden unter Einsatz von Amersham™ ECL™ Primer Western Blotting Detection Reagent (GE Healthcare, Chalfont St Giles, Buckinghamshire, UK) und Fusion-FX7 sowie der korrespondierenden Software Fusion Bio-1D V12.14 (Vilber-Lourmat, Eberhardzell, Deutschland) nach ausgiebigem Waschen visualisiert. Die Nitrozellulosemembranen werden über Nacht bei 4 °C mit einem GAPDH-Antikörper inkubiert, um die Beladung jeder Spur zu bestimmen. Die Membranen werden nochmals gewaschen und mit dem sekundären Antikörper und ECL Detektionsreagenz inkubiert. […]"}, "[9]": {"tested_on": "HNSCC-Zellen", "test": "MTT test: proliferation and viability of HNSCC cells, 288 h incubation", "format": "cell-based, human", "details": "700 µM, MTT (Fig. 5)", "text": "(§4) Die Zellproliferation wird mittels eines quantitativen kolorimetrischen 3-(4,5-Dimethylthiazol-2-yl)-2,5-diphenyltetrazoliumbromid-basierten (MTT) Zelltests bestimmt. Dieser Test bestimmt die Anzahl der lebensfähigen Zellen auf Basis der mitochondrialen Konversion von MTT.\n(§5) Dazu werden 5.000 Zellen in jedes Well einer 96-Well-Platte verteilt. Nach 24 Stunden Kultivierung werden vier verschiedene Konzentrationen von 5-Fluoruracil oder Cisplatin zu den Kulturen hinzugefügt oder die Zellen werden mit drei Dosen bestrahlt. Nach 48 Stunden werden in jedes Well 10 µl MTT-Farbstoff (5 mg/ml) zugefügt. Nach zwei Stunden Inkubation mit MTT wurden die Kristalle gelöst und vorsichtig für 24 Stunden bei Raumtemperatur geschüttelt. Mithilfe eines Multi-Well-ELISA-Lesegeräts wird die Absorption der reduzierten Formazan-Produkte in Kontrolle und Proben-Wells bei einer Welle von 570 nm und 690 nm bestimmt. Alle Wachstumsproben des MTT-Tests werden in dreifacher Ausführung ausgeführt.\nDosisabhängige Inhibition der Proliferation von HNSCC durch 1,8-Cineol Um zu bestimmen, ob die Behandlung mit 1,8-Cineol zu einer Inhibition der zellulären Lebensfähigkeit von HNSCC führt, werden MTT-Tests durchgeführt. Zu diesem Zweck werden die Zellen für 288 Stunden in 300 µM bzw. 700 µM Cineol inkubiert."}, "[10]": {"tested_on": "HNSCC-Zelllinien", "test": "MTT assay: vitality and proliferation of HNSCC cell lines, 250 h culture", "format": "cell-based, human", "text": "as §4, §5\n(§6) Es werden weiterführende Untersuchungen durchgeführt zur Analyse des Einflusses von Cineol auf die Vitalität und Proliferation verschiedener permanenter Zelllinien. Hierzu werden einerseits die zwei HNSCC-Zelllinien und des Weiteren eine Fibroblastenzelllinie verwendet. Diese werden über einen Zeitraum von 250 Stunden mit verschiedenen Cineol-Konzentrationen kultiviert (1 mM bis 10 mM) und die Vitalität der Zellen wird jeweils mittels eines MTT-Assays untersucht."}, "[11]": {"tested_on": "Fibroblastenzelllinie", "test": "MTT assay: vitality and proliferation of a fibroblast cell line, 250 h culture", "format": "cell-based", "text": "as §4, §5, §6"}, "[12]": {"details": "from a concentration of 1mM to 2mM"}}, "note": "“Also recorded” adds a separate entry of the source.", "data": [{"molecule": "CC12CCC(CC1)C(C)(C)O2", "note": "[1,8-Cineol, 1,3,3-Trimethyl-2-oxabicyclo[2.2.2]octan]", "values": [{"measurement": "Expressionslevel von aktivem β-Catenin", "setting": "[1]", "value": "starke Abnahme von aktivem β-Catenin"}, {"measurement": "Level von bzw. Gehalt an phosphoryliertem GSK-3α/β (Serin-9/-21)", "setting": "[2]", "value": "verringerten Level von bzw. Gehalt an phosphoryliertem GSK-3α/β (Serin-9/-21)"}, {"measurement": "Expressionslevel von GSK-3α/β (Tyrosin-279/-216)", "setting": "[3]", "value": "nicht nennenswert beeinflusst"}, {"measurement": "endolysosomale Lokalisation von GSK-3", "setting": "[4]", "value": "Rückgang der endolysosomalen Lokalisation von Phospho-GSK-3 (Serin-9/-21); also recorded: verringerte endolysosomale Lokalisation von GSK-3"}, {"measurement": "Expression von Akt", "setting": "[5]", "value": "Weder die Expression noch die Phosphorylierung von Threonin-308 von Akt wird in den analysierten Zelllinien nennenswert beeinflusst"}, {"measurement": "Phosphorylierung von Threonin-308 von Akt", "setting": "[6]", "value": "Weder die Expression noch die Phosphorylierung von Threonin-308 von Akt wird in den analysierten Zelllinien nennenswert beeinflusst"}, {"measurement": "mRNA-Level von Wnt11", "setting": "[7]", "value": "starken Rückgang der mRNA-Level von Wnt11"}, {"measurement": "Proteinexpression von Wnt11", "setting": "[8]; cell lines 16A, SCC154, 60B and Carey24, 24 h, 1mM", "value": "starke Herunterregulation von Wnt11"}, {"measurement": "Wnt11 Proteinexpression", "setting": "[8]; cell lines 16B and 60A, 24 h, 1mM", "value": "Rückgang der Wnt11 Proteinexpression, auch wenn dieser geringer ist"}, {"measurement": "Proteinexpression von Wnt11", "setting": "[8]; dose dependence, six HNSCC cell lines (Fig. 4B)", "value": "dosisabhängig in Reaktion auf 1,8-Cineol abnimmt"}, {"measurement": "Proliferation und zelluläre Lebensfähigkeit von HNSCC-Zellen", "setting": "[9]", "value": "stark verringerte zelluläre Lebensfähigkeit"}, {"measurement": "Proliferation und zelluläre Lebensfähigkeit von HNSCC-Zellen", "setting": "[9]; listed as Cineol", "value": "starker Rückgang der Proliferation und zellulären Lebensfähigkeit"}, {"measurement": "Einfluss auf die Progression und Vitalität von HNSCC", "setting": "[10]; 1 mM to 10 mM", "value": "inhibierender Einfluss"}, {"measurement": "zytotoxische Wirkung", "setting": "[10]; 10mM", "value": "deutlich zytotoxische Wirkung"}, {"measurement": "proliferationshemmende Wirkung", "setting": "[10]; [12]", "value": "starke proliferationshemmende Wirkung"}, {"measurement": "Einfluss auf die Progression und Vitalität von Fibroblasten", "setting": "[11]; 1 mM to 10 mM", "value": "inhibierender Einfluss"}, {"measurement": "zytotoxische Wirkung", "setting": "[11]; 10mM", "value": "deutlich zytotoxische Wirkung"}, {"measurement": "proliferationshemmende Wirkung", "setting": "[11]; [12]", "value": "starke proliferationshemmende Wirkung"}]}]}
